Test results taken from patent publication US9987282B2, “Small molecule inhibitors of influenza A RNA-dependent RNA polymerase” (Nant Holdings IP, LLC, priority 2011, dated 2018).

Assays:
[1] = test system: cell death-activated reporter construct; experiment: Counter screen using a cell death-activated reporter construct (constitutive gene expression); conditions: for observed toxicity or efficacy in antiviral and counterscreen assays: antiviral reporter assay and counterscreen, tested up to 50 uM
[2] = test system: liver-derived HepG2 cells
[3] = test system: influenza A; type: cell-based
[4] = test system: influenza A/Puerto Rico/8/34 (H1N1) virus; experiment: In vitro viral propagation in MDCK cells, read by chicken red blood cell hemagglutination assay; type: cell-based; conditions: MDCK cells pre-incubated with compound; supernatants after 18-20 hour incubation
[5] = test system: influenza A/Puerto Rico/8/34; experiment: In vivo survival study in infected Balb/C mice; conditions: day 7 post-infection, 2×LD50 challenge
Protocol: In Vivo Survival Studies: Groups of 5 Balb/C mice ([…]) were weighed prior to the start of study and injected intravenously at the base of the tail with formulations containing A0435 at doses of 3.17, 1, or 0 mg/kg in phosphate buffered saline containing 3% w/v mouse serum albumin. Four hours later, these mice were challenged intranasally with 2×LD50 of influenza A/Puerto Rico/8/34 under anesthesia. Identical doses of A0435 were administered 24 and 48 hours after the initial dose administration and animal weights were monitored daily. Surviving animals were defined as those who maintained 70% or more of their starting weight.

[6] = test system: H3N2 serotype A/Aichi/2/68; experiment: In vitro viral propagation in MDCK cells, read by hemagglutination assay; type: cell-based, influenza A/Aichi/2/68 (H3N2); conditions: in vitro infection
[7] = test system: primary renal proximal tubule epithelial cells (RPTEC)
[8] = test system: influenza A/WS/1933 (H1N1); experiment: In vitro viral propagation in MDCK cells, read by hemagglutination assay; type: cell-based; conditions: in vitro infection
[9] = biological target: influenza A RNA-dependent RNA polymerase (RdRP) (Influenza A virus, UniProt P03428+P03431+P03433)

Compound | observed toxicity or efficacy in antiviral and counterscreen assays [1] | other results
CCc1c(C)nc2cc(-c3ccc(OC)c(OC)c3)nn2c1NCCc1ccccn1 [A0435] | – | inhibitory impact on the level of constitutive gene expression in the counter-screen assay ([1]; dose titration): no visible inhibitory impact; tolerability in cells [2]: well-tolerated; cytopathic effects in infected cells [3]: little to no signs of the cytopathic effects; concentration showing significant antiviral activity (hemagglutination assay) [4]: > 4 µM; animals surviving infection ([5]; 1 mg/kg intravenous): 2/5; animals surviving infection ([5]; 3.17 mg/kg intravenous): 3/5; inhibition of virus [6]: significantly inhibited; tolerability in cells [7]: well-tolerated; inhibition of virus [8]: significantly inhibited
CCc1c(C)nc2cc(-c3ccc(F)cc3)nn2c1NCCc1ccccn1 [A0436, 6-ethyl-2-(4-fluorophenyl)-5-methyl-N-(2-(pyridin-2-yl)ethyl)pyrazolo[1,5-a]pyrimidin-7-amine] | >10 uM (toxic to both antiviral and counterscreen at 50 uM) | –
Cc1ccc(-c2cc3nc4c(c(NCCc5ccccn5)n3n2)CCC4)cc1 [A0437, N-(2-(pyridin-2-yl)ethyl)-2-p-tolyl-6,7-dihydro-5H-cyclopenta[d]pyrazolo[1,5-a]pyrimidin-8-amine] | >50 µM (no observed toxicity or efficacy in either assay tested) | –
CCc1c(C)nc2cc(-c3ccc(OC)c(OC)c3)nn2c1NCCc1ccc(OC)c(OC)c1 [A0438, N-(3,4-dimethoxyphenethyl)-2-(3,4-dimethoxyphenyl)-6-ethyl-5-methylpyrazolo[1,5-a]pyrimidin-7-amine] | >10 uM (toxic to both antiviral and counterscreen at 50 uM) | –
CCc1c(C)nc2cc(-c3ccc(OC)c(OC)c3)nn2c1NCCc1ccccc1C [A0439] | – | toxicity in the reporter assay [9]: increased toxicity at higher doses due to precipitation; concentration showing significant antiviral activity (hemagglutination assay) [4]: > 7.5 µM
CCc1c(C)nc2cc(-c3ccc(OC)c(OC)c3)nn2c1NCCc1ccc(F)cc1 [A0440, 2-(3,4-dimethoxyphenyl)-6-ethyl-N-(4-fluorophenethyl)-5-methylpyrazolo[1,5-a]pyrimidin-7-amine] | >50 µM (no observed toxicity or efficacy in either assay tested) | –
Fc1ccc(-c2cc3nc4c(c(NCCc5ccccn5)n3n2)CCCC4)cc1 [A0441, 2-(4-fluorophenyl)-N-(2-(pyridin-2-yl)ethyl)-5,6,7,8-tetrahydropyrazolo[5,1-b]quinazolin-9-amine] | >10 uM (toxic to both antiviral and counterscreen at 50 uM) | –
Clc1ccc(-c2cc3nc4c(c(NCCc5ccccn5)n3n2)CCCC4)cc1 [A0442, 2-(4-chlorophenyl)-N-(2-(pyridin-2-yl)ethyl)-5,6,7,8-tetrahydropyrazolo[5,1-b]quinazolin-9-amine] | >10 uM (toxic to both antiviral and counterscreen at 50 uM) | –
COc1ccc(-c2cc3nc(C)c(C)c(N4CCCC4)n3n2)cc1OC [A0443, 2-(3,4-dimethoxyphenyl)-5,6-dimethyl-7-(pyrrolidin-1-yl)pyrazolo[1,5-a]pyrimidine] | >50 µM (no observed toxicity or efficacy in either assay tested) | –
COc1ccc(-c2cc3nc4c(c(NCCc5cccnc5)n3n2)CCC4)cc1OC [A0444, 2-(3,4-dimethoxyphenyl)-N-(2-(pyridin-3-yl)ethyl)-6,7-dihydro-5H-cyclopenta[d]pyrazolo[1,5-a]pyrimidin-8-amine] | >10 uM (toxic to both antiviral and counterscreen at 50 uM) | –
CCc1c(C)nc2cc(-c3cc(C)on3)nn2c1NCCc1ccccn1 [A0445, 6-ethyl-5-methyl-2-(5-methylisoxazol-3-yl)-N-(2-(pyridin-2-yl)ethyl)pyrazolo[1,5-a]pyrimidin-7-amine] | >50 µM (no observed toxicity or efficacy in either assay tested) | –
COc1cc(OC)cc(-c2cc3nc(C)cc(NCC(C)c4ccccc4)n3n2)c1 (centres unmarked) [A0525, 2-(3,5-dimethoxyphenyl)-5-methyl-N-(2-phenylpropyl)pyrazolo[1,5-a]pyrimidin-7-amine] | >50 µM (no observed toxicity or efficacy in either assay tested) | –
CCc1c(C)nc2cc(-c3ccc(OC)c(OC)c3)nn2c1NCc1cc(OC)ccc1OC [A0526, N-(2,5-dimethoxybenzyl)-2-(3,4-dimethoxyphenyl)-6-ethyl-5-methylpyrazolo[1,5-a]pyrimidin-7-amine] | >50 µM (no observed toxicity or efficacy in either assay tested) | –
CCc1c(C)nc2cc(-c3cc(OC)cc(OC)c3)nn2c1NCCc1ccccc1 [A0527, 2-(3,5-dimethoxyphenyl)-6-ethyl-5-methyl-N-phenethylpyrazolo[1,5-a]pyrimidin-7-amine] | >50 µM (no observed toxicity or efficacy in either assay tested) | –
COc1ccc(-c2cc3nc(-c4ccccc4)cc(NCc4ccccc4C)n3n2)cc1OC [A0528, 2-(3,4-dimethoxyphenyl)-N-(2-methylbenzyl)-5-phenylpyrazolo[1,5-a]pyrimidin-7-amine] | >50 µM (no observed toxicity or efficacy in either assay tested) | –
COc1ccc(-c2cc3nc4c(c(NCc5ccccc5F)n3n2)CCCC4)cc1 [A0529, N-(2-fluorobenzyl)-2-(4-methoxyphenyl)-5,6,7,8-tetrahydropyrazolo[5,1-b]quinazolin-9-amine] | >50 µM (no observed toxicity or efficacy in either assay tested) | –
COc1ccc(-c2cc3nc(C)cc(NCc4ccc5c(c4)OCO5)n3n2)cc1 [A0530, N-(benzo[d][1,3]dioxol-5-ylmethyl)-2-(4-methoxyphenyl)-5-methylpyrazolo[1,5-a]pyrimidin-7-amine] | >50 µM (no observed toxicity or efficacy in either assay tested) | –
Cc1cc(NC(CO)C(O)c2ccccc2)n2nc(-c3cccc(F)c3)cc2n1 (centres unmarked) [A0531, 2-(2-(3-fluorophenyl)-5-methylpyrazolo[1,5-a]pyrimidin-7-ylamino)-1-phenylpropane-1,3-diol] | >50 µM (no observed toxicity or efficacy in either assay tested) | –
Cc1cc(NCC(O)c2cccc(O)c2)n2nc(-c3cccc(F)c3)cc2n1 (centres unmarked) [A0532, 3-(2-(2-(3-fluorophenyl)-5-methylpyrazolo[1,5-a]pyrimidin-7-ylamino)-1-hydroxyethyl)phenol] | >50 µM (no observed toxicity or efficacy in either assay tested) | –
COc1ccc(-c2cc3nccc(NCc4ccccc4OC)n3n2)cc1 [A0547, N-(2-methoxybenzyl)-2-(4-methoxyphenyl)pyrazolo[1,5-a]pyrimidin-7-amine] | >50 µM (no observed toxicity or efficacy in either assay tested) | –
COc1ccc(-c2cc3nc(C)cc(NCc4ccccc4)n3n2)cc1 [A0548, N-benzyl-2-(4-methoxyphenyl)-5-methylpyrazolo[1,5-a]pyrimidin-7-amine] | >50 µM (no observed toxicity or efficacy in either assay tested) | –
COc1ccc(-c2c(C)nn3c(NCC(C)c4ccccc4)cc(C)nc23)cc1OC (centres unmarked) [A0549, 3-(3,4-dimethoxyphenyl)-2,5-dimethyl-N-(2-phenylpropyl)pyrazolo[1,5-a]pyrimidin-7-amine] | >50 µM (no observed toxicity or efficacy in either assay tested) | –
COc1ccc(-c2c(C)nn3c(N4CCc5ccccc5C4)cc(C)nc23)cc1OC [A0550, 2-(3-(3,4-dimethoxyphenyl)-2,5-dimethylpyrazolo[1,5-a]pyrimidin-7-yl)-1,2,3,4-tetrahydroisoquinoline] | >50 µM (no observed toxicity or efficacy in either assay tested) | –
COc1ccc(-c2cc3c(=O)[nH]nc(SCc4ccc5c(c4)OCO5)n3n2)cc1OC [A0551, 7-(benzo[d][1,3]dioxol-5-ylmethylthio)-2-(3,4-dimethoxyphenyl)pyrazolo [1,5-d][1,2,4]triazin-4(5H)-one] | >50 µM (no observed toxicity or efficacy in either assay tested) | –
CCOc1ccc(-c2cc3c(SCc4cccc(C)c4)nccn3n2)cc1 [A0552, 2-(4-ethoxyphenyl)-4-(3-methylbenzylthio)pyrazolo [1,5-a]pyrazine] | >50 µM (no observed toxicity or efficacy in either assay tested) | –
COc1ccc(-c2cc3c(=O)[nH]nc(SCc4ccccc4Cl)n3n2)cc1OC [A0553, 7-(2-chlorobenzylthio)-2-(3,4-dimethoxyphenyl)pyrazolo [1,5-d][1,2,4]triazin-4(5H)-one] | >50 µM (no observed toxicity or efficacy in either assay tested) | –
